Experimental findings from patent publication US12005045B2, “Method of modulating TIGIT and PD-1 signalling pathways using 1,2,4-oxadiazole compounds” (AURIGENE ONCOLOGY LIMITED, priority 2018, dated 2024) are described below.

For one assay, the system named is mPVR. The assay can be described thus: Rescue of mouse CD8+ T-cell proliferation in the presence of recombinant mPVR (IL-2 ELISA readout). The settings on record: mouse CD8+ T cells, anti-CD3 + mouse PVR, anti-TIGIT antibody = 100%; for Percent rescue of CD8+ T-cell proliferation mPVR based assay: 1000 nM compound; for Percent rescue of CD8+ T-cell proliferation at 100 nM mPVR based assay: 100 nM compound. It is filed as cell-based. From the text: 96-well plates, Corning; RPMI, Cat No. R6504, Sigma; Easy Sep magnet, Cat No. 18000, Stem Cell; Easy Sep Mouse CD8 T Cell isolation kit, Cat No. 19853, Stem Cell; Corning® cell strainer, (70 μm) Cat No. 431751, Corning; Purified anti-mouse CD3 Abs, Cat No. 100201, Biolegend; Recombinant mouse PVR, Cat No. 6909-CD-050, R&D Systems; Recombinant mouse anti-TIGIT Ab, Cat No. 142101, Biolegend; FBS, Cat No. SH30070.03, Hyclone; Mouse IL-2 ELISA Kit, R&D System Cat no DY402; Mouse IFN-γ ELISA Kit R&D Systems Cat no. DY485; Sterile PBS; FicollHistopaque, Cat No. 10831-6X100ML, Sigma
Spleen was collected from C57BL/6 male mice with 6-8 weeks of age. Splenocytes were isolated by slowly crushing the spleen between the sterile glass slides in RPMI+10% FBS and passing it through the 70 μm strainer. Cell suspension was centrifuged at 912×g for 10 minutes at room temperature and discarded the supernatant. Splenocytes were resuspended in RPMI+10% FBS (Complete RPMI). Resuspended splenocytes were overlaid on Ficoll Histopaque-1083 in a 50 ml Tarson tubes. Overlaid cells were centrifuged at 584×g for 30 minutes at room temperature without break. A clear buffy coat was carefully aspirated into sterile PBS. Isolated cells were washed using PBS and resuspended in complete RPMI medium to get a suspension of about 5×10^7 cells/ml. Mouse CD8^+ T cell were isolated by using EasySep Mouse CD8+ T Cell Isolation kit, as per manufacturers instruction.
96-well cell culture plate was coated with Purified anti-mouse CD3, 1 μg/mL (50 μL/well) and Recombinant Mouse PVR Fe Chimera, 0.5 μg/mL (50 ul/well) for 4 hours at 37° C. After 4 hours, the coated plate was washed with sterile PBS. Mouse CD8+ T cells isolated from spleen were added at 0.2 million/well ([…]) concentration into a 96-well cell culture plate. Test compound at various concentrations prepared in water or DMSO was added in respective wells (20 μL/well) so as to make the total volume 200 μL/well. The plates were incubated in 37° C. CO2 incubator for 3 days. On the 3rd day, cell supernatant was collected to determine cytokine levels (IL-2 or IFN-7) using ELISA. The extent of CD8+ T cell proliferation in presence or absence of test compound was measured by analysing the amount of IL-2 or IFN-7 in the culture supernatants using mouse IL-2 or IFN-7 ELISA kits as per manufacture instructions. Recombinant mouse anti-TIGIT antibody was used as positive control to determine the increased proliferation of CD8+ T cells.
Percent CD8+ T cell proliferation was analysed by measuring IL-2 levels using IL-2 ELISA kit and percent rescue of CD8+ T cell by test compound was estimated after deduction of % background proliferation value and normalising to % stimulated CD8+ T cell proliferation by anti-TIGIT antibody (positive control) as 100%.
In general terms: In an ELISA, binding on a coated surface is turned into a signal by an enzyme label.

The target in a further assay is T1, PD-L1 (Mus musculus, UniProt Q9EP73).
T1 construct: Fc (Fc chimera); purchased R&D Systems 1019-B7-100
The assay can be described thus: Rescue of mouse splenocyte proliferation in the presence of recombinant PD-L1 (CFSE proliferation assay). Format: cell-based. The settings on record: 100 nM compound; anti-CD3/CD28 stimulated mouse splenocytes + PD-L1; stimulated splenocytes = 100%; read-out: Percent rescue of splenocyte proliferation at 100 nM PD-L1 based assay. On the procedure: Recombinant mouse PD-L1 (rm-PDL-1, cat no: 1019-B7-100; R&D Systems) were used as the source of PD-L1.
Mouse splenocytes harvested from 6-8 weeks old C57 BL6 mice; RPMI 1640 (GIBCO, Cat #11875); DMEM with high glucose (GIBCO, Cat #D6429); Fetal Bovine Serum [Hyclone, Cat #SH30071.03]; Penicillin (10000 unit/mL)-Streptomycin (10,000 μg/mL) Liquid (GIBCO, Cat #15140-122); MEM Sodium Pyruvate solution 100 mM (100×), Liquid (GIBCO, Cat #11360); Nonessential amino acid (GIBCO, Cat #11140); L-Glutamine (GIBCO, Cat #25030); Anti-CD3 antibody (eBiosciences—16-0032); Anti-CD28 antibody (eBiosciences—16-0281); ACK lysis buffer (1 mL) (GIBCO, Cat #-A10492); Histopaque (density-1.083 gm/mL) (SIGMA 10831); Trypan blue solution (SIGMA-T8154); 2 mL Norm Ject Luer Lock syringe-(Sigma 2014-12); 40 μm nylon cell strainer (BD FALCON 35230); Hemacytometer (Bright line-SIGMA Z359629); FACS Buffer (PBS/0.1% BSA): Phosphate Buffered Saline (PBS) pH 7.2 (HiMedia TS1006) with 0.1% Bovine Serum Albumin (BSA) (SIGMA A7050) and sodium azide (SIGMA 08591); 5 mM stock solution of CFSE: CFSE stock solution was prepared by diluting lyophilized CFSE with 180 μL of Dimethyl sulfoxide (DMSO C2H6SO, SIGMA-D-5879) and aliquoted in to tubes for further use. Working concentrations were titrated from 10 μM to 1 μM. (eBioscience-650850-85); 0.05% Trypsin and 0.02% EDTA (SIGMA 59417C); 96-well format ELISA plates (Corning CLS3390); BD FACS caliber (E6016); Recombinant mouse B7-H1/PDL1 Fc Chimera, (rm-PD-L1 cat no: 1019-B7-100).
Splenocytes harvested in a 50 mL falcon tube by mashing mouse spleen in a 40 μm cell strainer were further treated with 1 mL ACK lysis buffer for 5 min at room temperature. After washing with 9 mL of RPMI complete media, cells were re-suspended in 3 mL of 1×PBS in a 15 mL tube. 3 mL of Histopaque was added carefully to the bottom of the tube without disturbing overlaying splenocyte suspension. After centrifuging at 800×g for 20 min at room temperature, the opaque layer of splenocytes was collected carefully without disturbing/mixing the layers. Splenocytes were washed twice with cold 1×PBS followed by total cell counting using Trypan Blue exclusion method and used further for cell based assays.
Splenocytes were cultured in RPMI complete media (RPMI+10% fetal bovine serum+1 mM sodium pyruvate+10,000 units/mL penicillin and 10,000 μg/mL streptomycin) and maintained in a CO2 incubator with 5% CO2 at 37° C.
CFSE is a dye that passively diffuses into cells and binds to intracellular proteins. 1×10^6 cells/mL of harvested splenocytes were treated with 5 μM of CFSE in pre-warmed 1×PBS/0.1% BSA solution for 10 min at 37° C. Excess CFSE was quenched using 5 volumes of ice-cold culture media to the cells and incubated on ice for 5 min. CFSE labelled splenocytes were further given three washes with ice cold complete RPMI media. CFSE labelled 1×10^5 splenocytes added to wells containing either MDA-MB231 cells (1×10^5 cells cultured in high glucose DMEM medium) or recombinant human PDL-1 (100 ng/mL) and test compounds. Splenocytes were stimulated with anti-mouse CD3 and anti-mouse CD28 antibody (1 μg/mL each), and the culture was further incubated for 72 h at 37° C. with 5% CO2. Cells were harvested and washed thrice with ice cold FACS buffer and % proliferation was analysed by flow cytometry with 488 nm excitation and 521 nm emission filters.
Percent splenocyte proliferation was analysed using cell quest FACS program and percent rescue of splenocyte proliferation by compound was estimated after deduction of % background proliferation value and normalising to % stimulated splenocyte proliferation (positive control) as 100%. • Stimulated splenocytes: Splenocytes+anti-CD3/CD28 stimulation • Background proliferation: Splenocytes+anti-CD3/CD28+PD-L1 • Compound proliferation: Splenocytes+anti-CD3/CD28+PD-L1+Compound • Compound effect is examined by adding required conc. of compound to anti-CD3/CD28 stimulated splenocytes in presence of ligand (PDL-1).

Assay [1] deals with CT26 syngeneic colon adenocarcinoma. The experiment in a line: Efficacy study in the CT-26 syngeneic (Balb/c male) mouse tumor model. The settings on record: 14 days, CT26 tumor bearing mice. It is filed as in vivo. As for the experimental part: The objective of this study was to evaluate anti-tumor activity of Compound 19 in a CT26 syngeneic colon adenocarcinoma model.
CT26 cell line was procured from ATCC, maintained and stored at ADTL-Bangalore cell line repository. One vial of CT26 cell line was thawed and revived in T-150 cm^2 flask with RPMI medium supplemented with 10% FBS (Gibco), 10 mM 4-(2-hydroxyethyl)-1-piperazineethanesulfonic acid (HEPES), 1 mM sodium pyruvate, 4.5 g/L Glucose, 1% penicillin streptomycin (Sigma) and 1.5 g/L sodium bicarbonate. The flask with CT26 cells at cell density 0.25 million/ml was incubated at 37±1° C. incubator supplied with 5% carbon dioxide. Cell expansion was carried out in T-150 cm^2 flasks and cell density was maintained between 0.25 […], with cell splitting every alternate day. […] Supernatant was discarded and cell pellets were suspended in media and counted using hemocytometer. […]
When the mean tumor volumes reached approximately 30±5 mm^3, the animals were randomized based on tumor volumes into five groups (G1 to G5) of ten animals (N=10) each as mentioned below. The treatment was continued for a period of 14 days after which the overall efficacy and tolerability were evaluated based on tumor volume and body weight changes observed during the treatment period. […]

The structures appear in SMILES notation.

T1 sequence (Q9EP73 19-238 limits assumed): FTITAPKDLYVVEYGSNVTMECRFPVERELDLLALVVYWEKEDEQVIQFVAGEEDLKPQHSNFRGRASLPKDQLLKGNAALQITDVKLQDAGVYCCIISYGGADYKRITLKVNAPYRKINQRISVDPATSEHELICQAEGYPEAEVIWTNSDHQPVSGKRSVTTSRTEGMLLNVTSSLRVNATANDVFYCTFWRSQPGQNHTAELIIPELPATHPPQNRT

With `CC(O)[C@H](N)c1noc([C@@H](N)Cc2ccccc2)n1` (stereo partly shown) [Compound 16], in the assay on mPVR, the “Percent rescue of CD8+ T-cell proliferation mPVR based assay” value was 72 (@ 1000 nM) %.

As for `CC(O)[C@H](N)c1noc([C@H](Cc2ccccc2)NC(=O)N2CCC[C@H]2C(=O)O)n1` (stereo partly shown) [Compound 20], the activation at 0.1 µM on PD-L1 worked out at 35%.

For `CC(O)[C@H](NC(=O)NCc1nc([C@@H](N)CC(=O)O)no1)C(=O)O` (stereo partly shown) [Compound 2], the activation at 0.1 µM at PD-L1 is 84%. The “Percent rescue of CD8+ T-cell proliferation at 100 nM mPVR based assay” value (“Percent rescue … at 100 nM mPVR based assay” for short) in the assay with mPVR is on record as 14%.

Regarding `CC(O)[C@H](N)c1noc([C@@H](NC(=O)N[C@@H](Cc2ccccc2)C(=O)O)C(C)O)n1` (stereo partly shown) [Compound 9], the “Percent rescue … at 100 nM mPVR based assay” value with mPVR is given as 56.9%.

For `CCC(C)[C@H](NC(=O)N[C@@H](CS)c1nc([C@@H](N)Cc2ccccc2)no1)C(=O)O` (stereo partly shown) [Compound 6], the activation at 0.1 µM on PD-L1 turned out to be 15%.

`CC(O)[C@H](NC(=O)N[C@@H](Cc1cnc[nH]1)c1nc([C@@H](N)Cc2ccc(O)cc2)no1)C(=O)O` (stereo partly shown) [Compound 7]: the activation at 0.1 µM on PD-L1 came to 39%.

As to `CC(O)[C@H](NC(=O)N[C@@H](Cc1ccc(O)cc1)C(=O)O)c1nc([C@@H](N)Cc2c[nH]cn2)no1` (stereo partly shown) [Compound 3], on PD-L1, the activation at 0.1 µM came to 11%. Besides, the “Percent rescue … at 100 nM mPVR based assay” value with mPVR is reported as 59%.

With `N[C@@H](Cc1ccc(O)cc1)c1noc([C@@H]2CCCN2C(=O)N[C@@H](CC(=O)O)C(=O)O)n1` [Compound 1, ((S)-2-(3-((S)-1-amino-2-(4-hydroxyphenyl)ethyl)-1,2,4-oxadiazol-5-yl)pyrrolidine-1-carbonyl)-L-aspartic acid], the activation at 0.1 µM at PD-L1 came to 17%. The “Percent rescue … at 100 nM mPVR based assay” value with mPVR stood at 98%.

Take `N[C@@H](CCC(=O)O)c1noc([C@H](Cc2ccc(O)cc2)NC(=O)N[C@@H](Cc2ccccc2)C(=O)O)n1` [Compound 4]: the activation at 0.1 µM at PD-L1 stood at 22%.

As for `CC(C)[C@H](N)c1noc([C@@H](NC(=O)N[C@@H](CCC(N)=O)C(=O)O)C(C)O)n1` (stereo partly shown) [Compound 5], the activation at 0.1 µM on PD-L1 worked out at 27%. In the assay on mPVR, the “Percent rescue of CD8+ T-cell proliferation mPVR based assay” value is listed as “(17 @ 1000 nM) %”.

In the case of `CC(O)[C@H](NC(=O)NCc1nc([C@@H](N)CCC(=O)O)no1)C(=O)O` (stereo partly shown) [Compound 8], the “Percent rescue … at 100 nM mPVR based assay” value with mPVR turned out to be 14.6%.

Take `CC(O)[C@H](N)c1noc([C@H](Cc2ccc(O)cc2)NC(=O)N2CCC[C@H]2C(=O)O)n1` (stereo partly shown) [Compound 19]: at PD-L1, the activation at 0.1 µM was found to be 99%. Also, the “Percent rescue … at 100 nM mPVR based assay” value in the assay on mPVR is recorded as 72%. Also, the tumor growth inhibition in assay [1] (10 mg/kg qd oral) is 42%; in assay [1] (30 mg/kg qd oral, statistically significant compared to vehicle), 53%.
